Source: patent publication US20240358693A1, “METHODS OF TREATING PAIN” (Aisa Pharma, Inc., priority 2023, published 2024)

Test system: participants with SSc-RP
Experiment: Scleroderma Health Assessment Questionnaire (SHAQ): disability indices and visual analog scales
Assay type: in vivo, human
Conditions: for SHAQ Visual Analogue Scale - Overall Disease Severity, Median / SHAQ Visual Analogue Scale - Pain, Mean / SHAQ Visual Analogue Scale - Pain, Median / SHAQ Visual Analogue Scale - Raynaud's, Mean / SHAQ Visual Analogue Scale - Raynaud's, Median / SHAQ Visual Analogue Scale - Breathing Problems, Mean / SHAQ Visual Analogue Scale - Breathing Problems, Median / SHAQ Visual Analogue Scale - Finger Ulcers, Mean / SHAQ Visual Analogue Scale - Finger Ulcers, Median / SHAQ Visual Analogue Scale - Intestinal Problems, Mean / SHAQ Visual Analogue Scale - Intestinal Problems, Median / SHAQ Visual Analogue Scale - Overall Disease Severity, Mean: In-Clinic Visit (Day 12), PP Population Part A
Text: The standard, validated, patient reported outcome measures tool for SSc patients, the Scleroderma Health Assessment Questionnaire (SHAQ), will be used to assess the participant qualify of life. Details are attached in the Appendix. The participant quality of life will be scored, and a disability index calculated for each questionnaire completed by the patient at Screening and each in-clinic visit. The absolute change in participant quality of life from baseline to the end of each dosing period will be calculated similar to frequency data as before.
The SHAQ includes a Raynaud's VAS, which will be reported at screening and each in-clinic visit. The absolute change in Raynaud-VAS, assessed by the participants response to the SHAQ question ‘In the past 7 days, how much have your Raynaud's interfered with your daily activities?’ at baseline and the end of each dosing period will be calculated similar to frequency data as before.
The SHAQ is used to calculate a Disability Index to assess the participant qualify of life. The eight categories assessed by the Disability Index are 1) dressing and grooming, 2) arising, 3) eating, 4) walking, 5) hygiene, 6) reach, 7) grip, and 8) common daily activities. For each of these categories, patients report the amount of difficulty they have in performing two or three specific activities.
There are four possible responses for the Disability Index questions: • Without any difficulty=0 • With some difficulty=1 • With much difficulty=2 • Unable to do=3. • The highest score reported by the patient for any component question of the eight categories determines the score for that category. • If a component question is left blank or the response is too ambiguous to assign a score, then the score for that category is determined by the remaining completed question(s). • If all component questions are blank or if more than one answer is given, then follow up with the respondent is required. • If the respondent's mark is between the response columns, then move it to the closest one. If it's directly between the two, move it to the higher one.
Each of the disability items on the SHAQ has a companion aids/devices variable that is used to record what type(s) of assistance, if any, the participant uses for his/her usual activities. These variables (see below) are coded as follows: • 0=No assistance is needed. • 1=A special device is used by the patient in his/her usual activities. • 2=The patient usually needs help from another person. • 3=The patient usually needs BOTH a special device AND help from another person.
The scoring variables and scoring rules permit the computation of two disability indices, the Standard Disability Index and the Alternative Disability Index.
This question results in a new set of category scores that are computed by adjusting the score for each category, if necessary, based on the patient's use of an aid or device or assistance for that category. If either devices and/or help from another person are checked for a category, the score is set to “2”, unless the score is already “3” (i.e., scores of “0” or “1” are increased to “2”). For example, if the highest score for the dressing category is “1”, and the patient says they use a device for dressing, the computed category score would be “2”. The sum of the computed categories scores is then calculated and divided by the number of categories answered. This gives a score in the 0 to 3 range.
The aid and device variables are not used to calculate the alternative disability index; it is calculated by adding the scores for each of the categories and dividing by the number of categories answered. This gives a score in the 0 to 3 range.
The standard, validated, patient reported outcome measures tool for SSc patients, the SHAQ, was collected at the time points specified in the study schedules (FIG. 2 and FIGS. 4A and 4B) to assess the participant's quality of life. The SHAQ included a Raynaud's VAS that will also be reported separately.

[1] = Pooled Cilnidipine 10 mg and Cilnidipine 10 mg + Tadalafil 5 mg (N = 9)
[2] = Pooled Cilnidipine 10 mg and Cilnidipine 10 mg + Tadalafil 5 mg (N = 9), Subject 01-110 score excluded
[3] = Pooled Cilnidipine 20 mg and Cilnidipine 20 mg + Tadalafil 5 mg (N = 8)
[4] = Modified ITT, Part A, dose Cilnidipine 10 mg, Tadalafil 5 mg, or 10 mg + 5 mg
[5] = Modified ITT, Part A, dose Cilnidipine 20 mg, or 20 mg + Tadalafil 5 mg

SMILES: COCCOC(=O)C1=C(C)NC(C)=C(C(=O)OC/C=C/c2ccccc2)C1c1cccc([N+](=O)[O-])c1 (stereo not shown) [Cilnidipine, cilnidipine]
- SHAQ Visual Analogue Scale - Overall Disease Severity, Median [1]: 1.900
- SHAQ Visual Analogue Scale - Pain, Mean [1]: 2.644
- SHAQ Visual Analogue Scale - Pain, Median [1]: 2.900
- SHAQ Visual Analogue Scale - Raynaud's, Mean [1]: 2.319
- SHAQ Visual Analogue Scale - Raynaud's, Median [1]: 2.600
- SHAQ Visual Analogue Scale - Breathing Problems, Mean [2]: 1.375
- SHAQ Visual Analogue Scale - Breathing Problems, Median [2]: 0.000
- SHAQ Visual Analogue Scale - Breathing Problems, Mean [3]: 1.400
- SHAQ Visual Analogue Scale - Breathing Problems, Median [3]: 0.450
- SHAQ Visual Analogue Scale - Finger Ulcers, Mean [3]: 1.171
- SHAQ Visual Analogue Scale - Finger Ulcers, Median [3]: 0.000
- SHAQ Visual Analogue Scale - Intestinal Problems, Mean [3]: 1.013
- SHAQ Visual Analogue Scale - Intestinal Problems, Median [3]: 0.100
- SHAQ Visual Analogue Scale - Overall Disease Severity, Mean [3]: 1.938
- SHAQ Visual Analogue Scale - Overall Disease Severity, Median [3]: 1.300
- SHAQ Visual Analogue Scale - Pain, Mean [3]: 2.288
- SHAQ Visual Analogue Scale - Pain, Median [3]: 2.100
- SHAQ Visual Analogue Scale - Raynaud's, Mean [3]: 1.688
- SHAQ Visual Analogue Scale - Raynaud's, Median [3]: 0.850
- SHAQ Visual Analogue Scale - Breathing Problems, Mean (Pooled Cilnidipine (N = 8)): 1.213
- SHAQ Visual Analogue Scale - Breathing Problems, Median (Pooled Cilnidipine (N = 8)): 0.200
- SHAQ Visual Analogue Scale - Finger Ulcers, Mean (Pooled Cilnidipine (N = 8)): 0.463
- SHAQ Visual Analogue Scale - Finger Ulcers, Median (Pooled Cilnidipine (N = 8)): 0.000
- SHAQ Visual Analogue Scale - Intestinal Problems, Mean (Pooled Cilnidipine (N = 8)): 0.975
- SHAQ Visual Analogue Scale - Intestinal Problems, Median (Pooled Cilnidipine (N = 8)): 0.300
- SHAQ Visual Analogue Scale - Overall Disease Severity, Mean (Pooled Cilnidipine (N = 8)): 1.475
- SHAQ Visual Analogue Scale - Overall Disease Severity, Median (Pooled Cilnidipine (N = 8)): 1.300
- SHAQ Visual Analogue Scale - Pain, Mean (Pooled Cilnidipine (N = 8)): 1.875
- SHAQ Visual Analogue Scale - Pain, Median (Pooled Cilnidipine (N = 8)): 1.550
- SHAQ Visual Analogue Scale - Raynaud's, Mean (Pooled Cilnidipine (N = 8)): 1.900
- SHAQ Visual Analogue Scale - Raynaud's, Median (Pooled Cilnidipine (N = 8)): 1.250
- SHAQ Finger Ulcers, Baseline, Mean [4]: 0.700
- SHAQ Finger Ulcers, Baseline, Median [4]: 0.500
- SHAQ Finger Ulcers, In Clinic Visit (Day 12), Mean [4]: 0.275
- SHAQ Finger Ulcers, In Clinic Visit (Day 12), Median [4]: 0.000
- SHAQ Standard disability index, Baseline, Mean [4]: 0.656
- SHAQ Standard disability index, Baseline, Median [4]: 0.563
- SHAQ Standard disability index, In Clinic Visit (Day 12), Mean [4]: 0.656
- SHAQ Standard disability index, In Clinic Visit (Day 12), Median [4]: 0.563
- SHAQ Visual Analog Scale-Breathing Problems, Baseline, Mean [4]: 1.875
- SHAQ Visual Analog Scale-Breathing Problems, Baseline, Median [4]: 0.000
- SHAQ Visual Analog Scale-Breathing Problems, In Clinic Visit (Day 12), Mean [4]: 1.575
- SHAQ Visual Analog Scale-Breathing Problems, In Clinic Visit (Day 12), Median [4]: 0.000
- SHAQ Visual Analog Scale-Intestinal Problems, Baseline, Mean [4]: 2.975
- SHAQ Visual Analog Scale-Intestinal Problems, Baseline, Median [4]: 2.550
- SHAQ Visual Analog Scale-Intestinal Problems, In Clinic Visit (Day 12), Mean [4]: 1.100
- SHAQ Visual Analog Scale-Intestinal Problems, In Clinic Visit (Day 12), Median [4]: 0.300
- SHAQ Visual Analog Scale-Pain, Baseline, Mean [4]: 1.975
- SHAQ Visual Analog Scale-Pain, Baseline, Median [4]: 2.150
- SHAQ Visual Analog Scale-Pain, In Clinic Visit (Day 12), Mean [4]: 1.875
- SHAQ Visual Analog Scale-Pain, In Clinic Visit (Day 12), Median [4]: 1.950
- SHAQ Visual Analog Scale-Raynaud's, Baseline, Mean [4]: 1.600
- SHAQ Visual Analog Scale-Raynaud's, Baseline, Median [4]: 1.000
- SHAQ Visual Analog Scale-Raynaud's, In Clinic Visit (Day 12), Mean [4]: 1.925
- SHAQ Visual Analog Scale-Raynaud's, In Clinic Visit (Day 12), Median [4]: 1.700
- SHAQ alternative disability index, Baseline, Mean [4]: 0.500
- SHAQ alternative disability index, Baseline, Median [4]: 0.438
- SHAQ alternative disability index, In Clinic Visit (Day 12), Mean [4]: 0.563
- SHAQ alternative disability index, In Clinic Visit (Day 12), Median [4]: 0.500
- SHAQ Finger Ulcers, Baseline, Mean [5]: 1.800
- SHAQ Finger Ulcers, Baseline, Median [5]: 0.300
